From patent US6573293B2, “Pyrrole substituted 2-indolinone protein kinase inhibitors” (Sugen, Inc., priority 2000, dated 2003)
pIC50: −log10 of the molar value.

Columns and labels:
[1] = biological target: T1, PDGFR-β (Homo sapiens, UniProt P09619); test: PDGFR bioassay (bio PDGF); type: biochemical
T1 construct: host or cells: NIH 3T3
Experimental: Corning 96-well Elisa plates
28D4C10 monoclonal anti-PDGFR antibody (SUGEN, Inc.).
Blocking Buffer (same as for EGFR bioassay).
PDGFR-β expressing NIH 3T3 cell lysate (SUGEN, Inc.).
Kinase buffer phosphorylation mix: for 10 ml, mix 250 μl 1M TRIS, 200 μl 5M NaCl, 100 μl 1M MnCl2 and 50 μl 100 mM Triton X-100 in enough dH2O to make 10 ml.
(§1) NUNC 96-well V bottom polypropylene plates.
Rabbit polyclonal anti-phosphotyrosine serum (SUGEN, Inc.).
Goat anti-rabbit IgG peroxidase conjugate (Biosource Cat. No. ALI0404).
Hydrogen peroxide, 30% solution.
Coat Corning 96 well ELISA plates with 0.5 μg 28D4C10 in 100 μl PBS per well, store overnight at 4° C.
Remove unbound 28D4C10 from wells by inverting plate to remove liquid. Wash 1×with dH2O. Pat the plate on a paper towel to remove excess liquid.
Add 150 μl of Blocking Buffer to each well. Incubate for 30 min. at room temperature with shaking.
Wash plate 3×with deionized water, then once with TBST. Pat plate on a paper towel to remove excess liquid and bubbles.
Dilute lysate in HNTG (10 μg lysate/100 μl HNTG).
Add 100 μl of diluted lysate to each well. Shake at room temperature for 60 min.
Wash plates as described in Step 4.
Add 80 μl working kinase buffer mix to ELISA plate containing captured PDGFR.
Add 10 μl diluted test compound to ELISA plate. To control wells, add 10 μl TBS+10% DMSO. Incubate with shaking for 30 minutes at room temperature.
Add 10 μl ATP directly to all wells except negative control well (final well volume should be approximately 100 μl with 20 μM ATP in each well.) Incubate 30 minutes with shaking.
Stop reaction by adding 10 μl of EDTA solution to each well.
Wash 4×with deionized water, twice with TBST.
Add 100 μl anti-phosphotyrosine (1:3000 dilution in TBST) per well. Incubate with shaking for 30-45 min. at room temperature.
Incubate with shaking for 30 min. at room temperature.
Add 100 μl of ABTS/H2O2 solution to each well.
Incubate 10 to 30 minutes with shaking. Remove any bubbles.
If necessary stop reaction with the addition of 100 μl 0.2 M HCl per well.

[2] = biological target: T2, GST-Flk1 (Mus musculus, UniProt P35918); test: GST-FLK-1 bioassay (bio flkGST); type: biochemical
T2 construct: GST-Flk1cd purified from sf9 recombinant baculovirus transformation; host or cells: Sf9 (baculovirus)
Experimental: This assay analyzes the tyrosine kinase activity of GST-Flk1 on poly(glu,tyr) peptides.
Preparation of poly(glu,tyr)(pEY) coated assay plates: Coat 2 ug/well of poly(glu,tyr)(pEY) in 100 ul PBS, hold at room temperature for 2 hours or at 4° C. overnight. Cover plates well to prevent evaporation.
When all reagents have dissolved, adjust the pH to 7.2 with HCl. Bring total volume to 1 L with dH2O.
PBST Buffer: to 1 L of PBS Buffer, add 1.0 ml Tween-20.
Adjust pH to 7.2 with HCl. Add 10 g BSA, stir to dissolve. Bring total volume to 1 L with dH2O. Filter to remove particulate matter.
Adjust total volume to 1 L with PBS buffer, filter to remove particulate matter.
GST-Flk1cd purified from sf9 recombinant baculovirus transformation (SUGEN, Inc.).
Add 10 N NaOH until EDTA dissolves. Adjust pH to 8.0. Adjust total volume to 100 ml with dH2O.
Anti-phosphotyrosine monoclonal antibody conjugated to horseradish peroxidase (PY99 HRP, Santa Cruz Biotech).
2,2′-Azinobis(3-ethylbenzthiazoline-6-sulfonic acid (ABTS, Moss, Cat. No. ABST).
Coat Corning 96-well ELISA plates with 2 μg of polyEY peptide in sterile PBS as described in step 3 of Materials and Reagents.
Remove unbound liquid from wells by inverting plate. Wash once with TBST. Pat the plate on a paper towel to remove excess liquid.
Add 100 μl of 1% BSA in PBS to each well. Incubate, with shaking, for 1 hr. at room temperature.
Soak wells with 50 mM HEPES (pH7.5) (150 μl/well).
Dilute test compound with dH2O/4% DMSO to 4 times the desired final assay concentration in 96-well polypropylene plates.
Add 25 μl diluted test compound to ELISA plate. In control wells, place 25 μl of dH2O/4% DMSO.
Add 25 μl 0.5M EDTA to negative control wells.
Dilute GST-Flk1 to 0.005 μg (5 ng)/well with KDB.
Add 50 μl of diluted enzyme to each well.
Incubate, with shaking, for 15 minutes at room temperature.
Wash 3×with TBST and pat plate on paper towel to remove excess liquid.
Incubate, with shaking, for 90 min. at room temperature.
Add 100 μl of room temperature ABTS solution to each well.
Stop reaction by adding 20 μl of 10% SDS to each well.

[3] = biological target: T3, HER-2 kinase (Homo sapiens, UniProt P04626); test: Cellular HER-2 kinase assay; type: cell-based; settings: read-out: Her2 Kinase IC50
T3 construct: Use EGFr/HER-2 chimera/3T3-C7 cell line for this assay; It is expressed in mouse NIH 3T3 clone C7 cells; P00533 (Epidermal growth factor receptor)
Experimental: Cellular HER-2 Kinase Assay
This assay is used to measure HER-2 kinase activity in whole cells in an ELISA format.
Fetal Bovine Serum (FBS, GIBCO Catalog #16000-044), heat inactivated in a water bath for 30 min. at 56° C.
Corning 96-well ELISA Plates.
as §1
SUMO 1: monoclonal anti-EGFR antibody (SUGEN, Inc.).
Blocking Buffer: 5% Carnation Instant Milk® in PBS.
Suspend powder in 100 uL of 10 mM HCl. Add 100 uL 10 mM NaOH. Add 800 uL PBS and transfer to an Eppendorf tube, store at −20° C. until ready to use.
Na3VO4. […] Adjust pH to 10. Boil in microwave for one minute (solution becomes clear). Cool to room temperature. Adjust pH to 10. Repeat heating/cooling cycle until pH remains at 10.
Rabbit polyclonal antiserum specific for phosphotyrosine (anti-Ptyr antibody, SUGEN, Inc.).
Affinity purified antiserum, goat anti-rabbit IgG antibody, peroxidase conjugate (Biosource Cat #ALI0404).
30% Hydrogen peroxide solution.
Coat Corning 96 well ELISA plates with SUMO1 at 1.0 ug per well in PBS, 100 ul final volume/well. Store overnight at 4° C.
On day of use, remove coating buffer and wash plate 3 times with dH2O and once with TBST buffer. All washes in this assay should be done in this manner, unless otherwise specified.
Add 100 ul of Blocking Buffer to each well. Incubate plate, with shaking, for 30 min. at room temperature. Just prior to use, wash plate.
Use EGFr/HER-2 chimera/3T3-C7 cell line for this assay.
Choose dishes having 80-90% confluence. Collect cells by trypsinization and centrifuge at 1000 rpm at room temperature for 5 min.
Resuspend cells in starve medium and count with trypan blue. Viability above 90% is required. Seed cells in starve medium at a density of 2,500 cells per well, 90 ul per well, in a 96 well microtiter plate. Incubate seeded cells overnight at 37° under 5% CO2.
Start the assay two days after seeding.
Test compounds are dissolved in 4% DMSO. Samples are then further diluted directly on plates with starve-DMEM. Typically, this dilution will be 1:10 or greater.
Incubate under 5% CO2 at 37° C. for 2 hours.
Prepare fresh HNTG* sufficient for 100 ul per well; place on ice.
After 2 hour incubation with test compound, add prepared EGF ligand to cells, 50 ul per well, for a final concentration of 50 nM. Positive control wells receive the same amount of EGF. […] Incubate at 37° C. for 10 min.
Remove test compound, EGF, and DMEM. Wash cells once with PBS.
Transfer HNTG* to cells, 100 ul per well. Place on ice for 5 minutes. Meanwhile, remove blocking buffer from ELISA plate and wash.
Scrape cells from plate with a micropipettor and homogenize cell material by repeatedly aspirating and dispensing the HNTG* lysis buffer. Transfer lysate to a coated, blocked, washed ELISA plate. Or, use a Costar transfer cartridge to transfer lysate to the plate.
Incubate, with shaking, at room temperature for 1 hr.
Remove lysate, wash. Transfer freshly diluted anti-Ptyr antibody (1:3000 in TBST) to ELISA plate, 100 ul per well.
Incubate, with shaking, at room temperature, for 30 min.
Remove anti-Ptyr antibody, wash. Transfer freshly diluted BIOSOURCE antibody to ELISA plate (1:8000 in TBST, 100 ul per well).
Incubate, with shaking, at room temperature for 30 min.
Remove BIOSOURCE antibody, wash. Transfer freshly prepared ABTS/H2O2 solution to ELISA plate, 100 ul per well.
Stop reaction with the addition of 100 ul of 0.2M HCl per well.

[4] = biological target: T4, EGFR (Homo sapiens, UniProt P00533); test: EGFR bioassay (bio EGF); type: biochemical
T4 construct: A431 cell lysate (SUGEN, Inc.); host or cells: A431
T4 sequence (P00533 25-1210): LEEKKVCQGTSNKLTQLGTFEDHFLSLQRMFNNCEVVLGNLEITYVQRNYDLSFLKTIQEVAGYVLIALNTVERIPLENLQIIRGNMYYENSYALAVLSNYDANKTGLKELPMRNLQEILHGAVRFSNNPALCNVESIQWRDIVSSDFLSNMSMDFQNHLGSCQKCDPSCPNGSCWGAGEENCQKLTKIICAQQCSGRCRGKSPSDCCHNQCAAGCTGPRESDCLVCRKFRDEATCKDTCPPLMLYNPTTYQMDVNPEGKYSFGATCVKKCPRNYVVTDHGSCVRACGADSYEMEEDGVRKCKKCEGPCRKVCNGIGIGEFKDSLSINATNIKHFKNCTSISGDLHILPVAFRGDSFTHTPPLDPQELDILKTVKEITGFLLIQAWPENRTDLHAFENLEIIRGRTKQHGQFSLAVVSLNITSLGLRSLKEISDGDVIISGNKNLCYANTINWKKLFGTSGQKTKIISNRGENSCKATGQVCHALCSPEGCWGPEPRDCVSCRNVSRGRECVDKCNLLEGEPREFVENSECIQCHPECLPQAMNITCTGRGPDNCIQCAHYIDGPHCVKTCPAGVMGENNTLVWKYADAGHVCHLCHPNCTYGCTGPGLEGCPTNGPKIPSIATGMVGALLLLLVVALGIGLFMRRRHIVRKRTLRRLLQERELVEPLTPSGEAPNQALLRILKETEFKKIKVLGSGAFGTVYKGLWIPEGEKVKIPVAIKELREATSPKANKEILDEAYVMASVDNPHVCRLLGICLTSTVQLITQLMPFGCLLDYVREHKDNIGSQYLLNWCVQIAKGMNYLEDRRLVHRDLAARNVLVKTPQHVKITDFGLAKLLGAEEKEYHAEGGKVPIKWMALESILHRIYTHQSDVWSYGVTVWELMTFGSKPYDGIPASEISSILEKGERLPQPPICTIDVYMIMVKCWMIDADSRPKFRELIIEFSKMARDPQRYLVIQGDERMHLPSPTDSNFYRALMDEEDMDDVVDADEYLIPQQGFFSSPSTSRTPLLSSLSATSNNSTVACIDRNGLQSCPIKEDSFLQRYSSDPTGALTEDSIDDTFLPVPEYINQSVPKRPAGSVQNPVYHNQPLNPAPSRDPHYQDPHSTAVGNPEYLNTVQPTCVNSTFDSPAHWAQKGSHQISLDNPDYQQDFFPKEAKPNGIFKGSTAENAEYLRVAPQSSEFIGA

T1 sequence (P09619 33-1106): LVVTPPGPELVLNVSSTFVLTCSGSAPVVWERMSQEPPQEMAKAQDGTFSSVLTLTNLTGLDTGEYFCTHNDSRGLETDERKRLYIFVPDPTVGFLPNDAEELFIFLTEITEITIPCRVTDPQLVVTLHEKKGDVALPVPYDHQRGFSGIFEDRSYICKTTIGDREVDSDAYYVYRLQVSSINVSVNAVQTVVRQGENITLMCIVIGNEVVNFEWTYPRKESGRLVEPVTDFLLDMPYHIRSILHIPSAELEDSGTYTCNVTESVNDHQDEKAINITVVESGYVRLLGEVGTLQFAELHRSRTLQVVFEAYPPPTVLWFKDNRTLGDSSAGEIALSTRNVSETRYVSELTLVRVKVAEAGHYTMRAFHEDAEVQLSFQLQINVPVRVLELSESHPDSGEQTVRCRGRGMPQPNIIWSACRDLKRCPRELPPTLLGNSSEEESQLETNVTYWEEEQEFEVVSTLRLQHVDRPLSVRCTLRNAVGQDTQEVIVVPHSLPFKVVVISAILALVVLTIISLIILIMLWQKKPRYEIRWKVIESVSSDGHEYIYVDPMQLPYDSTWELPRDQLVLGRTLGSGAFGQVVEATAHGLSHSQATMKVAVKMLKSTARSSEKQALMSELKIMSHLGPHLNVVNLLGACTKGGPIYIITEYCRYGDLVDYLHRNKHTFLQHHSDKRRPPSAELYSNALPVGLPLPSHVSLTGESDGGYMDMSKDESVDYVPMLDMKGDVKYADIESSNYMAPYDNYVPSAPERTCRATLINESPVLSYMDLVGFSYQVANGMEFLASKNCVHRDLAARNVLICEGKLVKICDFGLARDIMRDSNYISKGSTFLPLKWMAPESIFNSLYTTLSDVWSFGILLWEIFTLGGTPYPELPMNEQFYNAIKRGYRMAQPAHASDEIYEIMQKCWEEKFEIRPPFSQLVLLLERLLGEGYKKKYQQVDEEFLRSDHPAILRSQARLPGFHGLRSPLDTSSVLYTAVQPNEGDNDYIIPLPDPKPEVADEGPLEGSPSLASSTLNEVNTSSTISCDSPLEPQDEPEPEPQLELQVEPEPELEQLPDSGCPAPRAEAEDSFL
T3 sequence (P04626 720-987 limits assumed): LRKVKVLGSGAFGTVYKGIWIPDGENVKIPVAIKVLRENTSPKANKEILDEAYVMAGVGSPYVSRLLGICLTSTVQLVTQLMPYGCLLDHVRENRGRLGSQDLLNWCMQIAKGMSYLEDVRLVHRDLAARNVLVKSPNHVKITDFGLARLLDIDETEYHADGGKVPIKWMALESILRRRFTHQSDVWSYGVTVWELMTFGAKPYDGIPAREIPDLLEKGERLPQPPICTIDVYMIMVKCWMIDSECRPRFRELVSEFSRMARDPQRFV
T2 sequence (P35918 784-1345 limits assumed): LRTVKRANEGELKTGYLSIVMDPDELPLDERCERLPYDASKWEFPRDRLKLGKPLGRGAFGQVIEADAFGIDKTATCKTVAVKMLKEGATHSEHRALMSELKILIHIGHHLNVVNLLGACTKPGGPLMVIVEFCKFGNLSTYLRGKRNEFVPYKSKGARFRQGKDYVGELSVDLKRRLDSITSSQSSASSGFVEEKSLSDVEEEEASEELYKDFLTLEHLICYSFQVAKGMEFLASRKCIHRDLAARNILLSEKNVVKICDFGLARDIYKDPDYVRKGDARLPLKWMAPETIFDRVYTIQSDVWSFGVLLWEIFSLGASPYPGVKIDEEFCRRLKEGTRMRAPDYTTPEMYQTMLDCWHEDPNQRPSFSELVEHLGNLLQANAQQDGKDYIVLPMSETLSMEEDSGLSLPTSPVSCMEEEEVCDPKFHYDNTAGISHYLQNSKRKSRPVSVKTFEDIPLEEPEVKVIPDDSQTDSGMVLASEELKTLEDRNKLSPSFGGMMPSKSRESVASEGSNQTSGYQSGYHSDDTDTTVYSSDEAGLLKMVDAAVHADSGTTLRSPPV

| Structure (SMILES) | pIC50 [1] | pIC50 [2] | pIC50 [3] | pIC50 [4] |
| --- | --- | --- | --- | --- |
| COc1ccc(-c2ccc3c(c2)NC(=O)/C3=C\c2[nH]c(C)c(C(=O)NCCN3CCCC3)c2C)c(OC)c1 [Example 78, 5-[6-(2,4-Dimethoxy-phenyl)-2-oxo-1,2-dihydroindol-3-ylidenemethyl]-2,4-dimethyl-1H-pyrrole-3-carboxylic acid (2-pyrrolidin-1-yl-ethyl)amide] | 4.15 | 5.71 | 5.37 | 5.03 |
| Cc1c(C(=O)NCCCN2CCCC2)[nH]c(/C=C2\C(=O)Nc3cc(-c4ccccc4)ccc32)c1C(=O)c1ccccc1 [Example 25, 4-Benzoyl-3-methyl-5-(2-oxo-6-phenyl-1,2-dihydroindol-3-ylidenemethyl)-1H-pyrrole-2-carboxylic acid (3-pyrrolidin-1-ylpropyl)amide] | – | 4.90 | 5.10 | 4.63 |
| Cc1[nH]c(/C=C2\C(=O)Nc3cc(-c4cccc(C(C)C)c4)ccc32)c(C)c1C(=O)NCCN1CCCC1 [Example 79, 5-[6-(3-Isopropyl-phenyl)-2-oxo-1,2-dihydroindol-3-ylidenemethyl]-2,4-dimethyl-1H-pyrrole-3-carboxylic acid (2-pyrrolidin-1-yl-ethyl)amide] | < 4.00 | 5.83 | < 4.00 | 4.56 |
| COc1ccc(C(C)C)cc1-c1ccc2c(c1)NC(=O)/C2=C\c1[nH]c(C)c(C(=O)NCCN2CCCC2)c1C [Example 76, 5-[6-(5-Isopropyl-2-methoxy-phenyl)-2-oxo-1,2-dihydroindol-3-ylidenemethyl]-2,4-dimethyl-1H-pyrrole-3-carboxylic acid (2-pyrrolidin-1-yl-ethyl)amide] | 4.72 | 5.48 | 5.52 | 5.29 |
| Cc1c(C(=O)NCCCN2CCCC2)[nH]c(/C=C2\C(=O)Nc3ccccc32)c1C(=O)c1ccccc1 [Example 23, 4-Benzoyl-3-methyl-5-(2-oxo-1,2-dihydroindol-3-ylidenemethyl)-1H-pyrrole-2-carboxylic acid (3-pyrrolidin-1-ylpropyl)amide] | < 4.00 | < 4.70 | 5.39 | 4.44 |
| Cc1c(C(=O)NCCCN2CCOCC2)[nH]c(/C=C2\C(=O)Nc3ccc(Br)cc32)c1C(=O)c1ccccc1 [Example 22, 4-Benzoyl-5-(5-bromo-2-oxo-1,2-dihydroindol-3-ylidenemethyl)-3-methyl-1H-pyrrole-2-carboxylic acid (3-morpholin-4-ylpropyl)amide] | – | – | 4.06 | – |
| CCN(CC)CCNC(=O)c1c(C)[nH]c(/C=C2\C(=O)Nc3cc(-c4cc(Cl)cc(Cl)c4)ccc32)c1C [Example 62, 5-[6-(3,5-Dichloro-phenyl)-2-oxo-1,2-dihydroindol-3-ylidenemethyl]-2,4-dimethyl-1H-pyrrole-3-carboxylic acid (2-diethylaminoethyl)amide] | 5.08 | 5.10 | – | – |
| CCc1ccc(-c2ccc3c(c2)NC(=O)/C3=C\c2[nH]c(C)c(C(=O)NCCN3CCCC3)c2C)cc1 [Example 77, 5-[6-(4-Ethyl-phenyl)-2-oxo-1,2-dihydroindol-3-ylidenemethyl]-2,4-dimethyl-1H-pyrrole-3-carboxylic acid (2-pyrrolidin-1-yl-ethyl)amide] | 4.60 | 6.31 | < 4.00 | < 4.00 |
| COc1ccc2c(c1)/C(=C/c1[nH]c(C(=O)NCCCN3CCCC3)c(C)c1C(=O)c1ccccc1)C(=O)N2 [Example 27, 4-Benzoyl-5-(5-methoxy-2-oxo-1,2-dihydroindol-3-ylidenemethyl)-3-methyl-1H-pyrrole-2-carboxylic acid (3-pyrrolidin-1-ylpropyl)amide] | < 4.00 | – | 5.41 | 4.58 |
| CCN(CC)CCCNC(=O)c1[nH]c(/C=C2\C(=O)Nc3ccc(Br)cc32)c(C(=O)c2ccccc2)c1C [Example 21, 4-Benzoyl-5-(5-bromo-2-oxo-1,2-dihydroindol-3-ylidenemethyl)-3-methyl-1H-pyrrole-2-carboxylic acid (3-diethylaminopropyl)amide] | < 4.00 | 5.14 | 4.56 | 4.39 |
| CCN(CC)CCCNC(=O)c1[nH]c(/C=C2\C(=O)Nc3ccccc32)cc1C [Example 12, 3-Methyl-5-(2-oxo-1,2-dihydroindol-3-ylidenemethyl)-1H-pyrrole-2-carboxylic acid (3-diethylaminopropyl)amide] | 4.67 | < 4.70 | 4.56 | < 4.00 |
| CCN(CC)CCNC(=O)c1c(C(C)C)[nH]c(/C=C2\C(=O)Nc3ccc(Br)cc32)c1C(C)C [Example 71, 5-(5-Bromo-2-oxo-1,2-dihydroindol-3-ylidenemethyl)-2,4-diisopropyl-1H-pyrrole-3-carboxylic acid (2-diethylaminoethyl)amide] | 4.65 | 4.82 | 5.00 | – |
| CCN(CC)CCCNC(=O)c1[nH]c(/C=C2\C(=O)Nc3ccc(OC)cc32)cc1C [Example 15, 5-(5-Methoxy-2-oxo-1,2-dihydroindol-3-ylidenemethyl)-3-methyl-1H-pyrrole-2-carboxylic acid (3-diethylaminopropyl)amide] | – | – | 4.01 | – |
| COc1ccc2c(c1)NC(=O)/C2=C\c1[nH]c(C(=O)NCCCN2CCCC2)c(C)c1C(=O)c1ccccc1 [Example 26, 4-Benzoyl-5-(6-methoxy-2-oxo-1,2-dihydroindol-3-ylidenemethyl)-3-methyl-1H-pyrrole-2-carboxylic acid (3-pyrrolidin-1-ylpropyl)amide] | 4.17 | 4.80 | 5.00 | 4.46 |
| CCN(CC)CCNC(=O)c1c(C)[nH]c(/C=C2\C(=O)Nc3cc(C(=O)O)ccc32)c1C [Example 81, 3-[4-(2-diethylaminoethylcarbamoyl)-3,5-dimethyl-1H-pyrrol-2-ylmethylene]-2-oxo-2,3-dihydro-1H-indole-6-carboxylic acid] | 6.74 | 6.68 | < 4.00 | < 4.00 |
| CC(C)c1[nH]c(/C=C2\C(=O)Nc3ccc(Br)cc32)c(-c2ccccc2)c1C(=O)NCCCN1CCN(C)CC1 [Example 40, 5-(5-Bromo-2-oxo-1,2-dihydroindol-3-ylidenemethyl)-2-isopropyl-4-phenyl-1H-pyrrole-3-carboxylic acid [3-(4-methyl-piperazin-1-yl)-propyl]amide] | 5.10 | 5.35 | 5.20 | 5.19 |
| Cc1[nH]c(/C=C2\C(=O)Nc3ccc(-c4ccccc4)cc32)c(C)c1C(=O)NCCCn1ccnc1 [Example 58, 2,4-Dimethyl-5-(2-oxo-5-phenyl-1,2-dihydroindol-3-ylidenemethyl)-1H-pyrrole-3-carboxylic acid (3-imidazol-1-ylpropyl)amide] | 4.67 | – | – | – |
| Cc1[nH]c(/C=C2\C(=O)Nc3ccc(Br)cc32)c(C)c1C(=O)NCc1ccncc1 [Example 74, 5-(5-Bromo-2-oxo-1,2-dihydroindol-3-ylidenemethyl)-2,4-dimethyl-1H-pyrrole-3-carboxylic acid (pyridin-4-ylmethyl)amide] | 7.05 | 5.92 | < 4.00 | 4.33 |
| Cc1c(C(=O)NCCCN2CCCC2)[nH]c(/C=C2\C(=O)Nc3ccc(F)cc32)c1C(=O)c1ccccc1 [Example 28, 4-Benzoyl-5-(5-fluoro-2-oxo-1,2-dihydroindol-3-ylidenemethyl)-3-methyl-1H-pyrrole-2-carboxylic acid (3-pyrrolidin-1-ylpropyl)amide] | 4.15 | 5.35 | 5.57 | 4.27 |
| CC(=O)c1c(/C=C2\C(=O)Nc3ccc(Br)cc32)[nH]c(C(=O)NCCN2CCCC2)c1C [Example 35, 4-Acetyl-5-(5-bromo-2-oxo-1,2-dihydroindol-3-ylidenemethyl)-3-methyl-1H-pyrrole-2-carboxylic acid (2-pyrrolidin-1-yl-ethyl)amide] | < 4.00 | < 4.70 | 4.27 | 4.09 |
| CC(=O)c1c(/C=C2\C(=O)Nc3ccc(Br)cc32)[nH]c(C(=O)NCCCN2CCCC2)c1C [Example 30, 4-Acetyl-5-(5-bromo-2-oxo-1,2-dihydroindol-3-ylidenemethyl)-3-methyl-1H-pyrrole-2-carboxylic acid (3-pyrrolidin-1-ylpropyl)amide] | < 4.00 | 5.03 | 5.39 | 4.73 |
| CCN(CC)CCNC(=O)c1c(C)[nH]c(/C=C2\C(=O)Nc3cc(-c4cccnc4)ccc32)c1C [Example 63, 2,4-Dimethyl-5-(2-oxo-6-pyridin-3-yl-1,2-dihydroindol-3-ylidenemethyl)-1H-pyrrole-3-carboxylic acid (2-diethylaminoethyl)amide] | – | 6.68 | – | 5.07 |
| CC(=O)c1c(/C=C2\C(=O)Nc3ccc(Br)cc32)[nH]c(C(=O)NCCCN2CCOCC2)c1C [Example 31, 4-Acetyl-5-(5-bromo-2-oxo-1,2-dihydroindol-3-ylidenemethyl)-3-methyl-1H-pyrrole-2-carboxylic acid (3-morpholin-4-ylpropyl)amide] | – | – | 4.33 | 5.01 |
| Cc1c(C(=O)NCCCN2CCCC2)[nH]c(/C=C2\C(=O)Nc3ccc(Br)cc32)c1C(=O)c1ccccc1 [Example 24, 4-Benzoyl-5-(5-bromo-2-oxo-1,2-dihydroindol-3-ylidenemethyl)-3-methyl-1H-pyrrole-2-carboxylic acid (3-pyrrolidin-1-ylpropyl)amide] | – | – | 5.27 | 4.77 |
| CCN(CC)CCCNC(=O)c1[nH]c(/C=C2\C(=O)Nc3cc(OC)ccc32)cc1C [Example 16, 5-(6-Methoxy-2-oxo-1,2-dihydroindol-3-ylidenemethyl)-3-methyl-1H-pyrrole-2-carboxylic acid (3-diethylaminopropyl)amide] | 4.01 | – | 4.63 | – |
